This is an account of results in patent EP2065386A1, “CGRP antagonists” (Boehringer Ingelheim Pharma GmbH & Co. KG, priority 2007, dated 2009).

Usually Ki stands for a measure of affinity in units of concentration, obtained from inhibition or displacement. Low values mean tighter binding, high ones weaker binding.

In the assay the target is T1, humanen CGRP-Rezeptor (Homo sapiens, UniProt O60894+Q16602).
T1 construct: endogenous in cells; host or cells: SK-N-MC cells (membrane homogenate)
T1 sequence (Q16602 23-461): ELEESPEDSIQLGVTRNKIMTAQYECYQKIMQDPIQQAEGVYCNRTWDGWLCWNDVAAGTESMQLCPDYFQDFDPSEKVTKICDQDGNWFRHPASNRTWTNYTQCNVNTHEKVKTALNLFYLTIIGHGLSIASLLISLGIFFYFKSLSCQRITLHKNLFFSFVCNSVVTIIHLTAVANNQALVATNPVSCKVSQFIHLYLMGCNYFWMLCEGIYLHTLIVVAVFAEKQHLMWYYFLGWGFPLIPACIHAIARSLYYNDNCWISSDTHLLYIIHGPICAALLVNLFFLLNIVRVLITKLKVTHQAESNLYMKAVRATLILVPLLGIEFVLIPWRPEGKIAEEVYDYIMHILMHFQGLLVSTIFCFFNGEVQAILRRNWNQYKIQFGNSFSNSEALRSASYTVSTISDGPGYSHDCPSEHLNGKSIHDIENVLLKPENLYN
T1 sequence (O60894 27-148): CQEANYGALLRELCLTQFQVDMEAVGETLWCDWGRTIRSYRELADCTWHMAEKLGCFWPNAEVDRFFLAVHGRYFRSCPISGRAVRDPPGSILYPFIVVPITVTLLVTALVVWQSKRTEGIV
The assay can be described thus: Binding studies with SK-N-MC cell membranes, displacement of 125I-Iodotyrosyl-CGRP. As to conditions: SK-N-MC membrane homogenate, 50 pM 125I-Iodotyrosyl-CGRP, 180 min, room temperature. The source says: Zum Nachweis der Affinität der voranstehend genannten Verbindungen zu humanen CGRP-Rezeptoren und ihrer antagonistischen Eigenschaften wurden die folgenden Versuche durchgeführt: • A. Bindungsstudien mit (den humanen CGRP-Rezeptor exprimierenden) SK-N-MC-Zellen SK-N-MC-Zellen werden in "Dulbecco's modified Eagle Medium" kultiviert. Das Medium konfluenter Kulturen wird entfernt. Die Zellen werden zweimal mit PBS-Puffer (Gibco 041-04190 M) gewaschen, durch Zugabe von PBS-Puffer, versetzt mit 0.02% EDTA, abgelöst und durch Zentrifugation isoliert. Nach Resuspension in 20 ml "Balanced Salts Solution" [BSS (in mM): NaCl 120, KCl 5.4, NaHCO3 16.2, MgSO4 0.8, NaHPO4 1.0, CaCl2 1.8, D-Glucose 5.5, HEPES 30, pH 7.40] werden die Zellen zweimal bei 100 x g zentrifugiert und in BSS resuspendiert. Nach Bestimmung der Zellzahl werden die Zellen mit Hilfe eines Ultra-Turrax homogenisiert und für 10 Minuten bei 3000 x g zentrifugiert. Der Überstand wird verworfen und das Pellet in Tris-Puffer (10 mM Tris, 50 mM NaCl, 5 mM MgCl2, 1 mM EDTA, pH 7.40), angereichert mit 1% Rinderserum-Albumin und 0.1% Bacitracin, rezentrifugiert und resuspendiert (1 ml / 1000000 Zellen). Das Homogenat wird bei -80°C eingefroren. Die Membranpräparationen sind bei diesen Bedingungen für mehr als 6 Wochen stabil. Nach Auftauen wird das Homogenat 1:10 mit Assay-Puffer (50 mM Tris, 150 mM NaCl, 5 mM MgCl2, 1 mM EDTA, pH 7.40) verdünnt und 30 Sekunden lang mit einem Ultra-Turrax homogenisiert. 230 µl des Homogenats werden für 180 Minuten bei Raumtemperatur mit 50 pM ^125I-Iodotyrosyl-Calcitonin-Gene-Related Peptide (Amersham) und ansteigenden Konzentrationen der Testsubstanzen in einem Gesamtvolumen von 250 µl inkubiert. Die Inkubation wird durch rasche Filtration durch mit Polyethylenimin (0.1%) behandelte GF/B-Glasfaserfilter mittels eines Zellharvesters beendet. Die an Protein gebundene Radioaktivität wird mit Hilfe eines Gammacounters bestimmt. Als nichtspezifische Bindung wird die gebundene Radioaktivität nach Gegenwart von 1 µM humanem CGRP-alpha während der Inkubation definiert. […]
`Cn1cc(C(=O)c2cc(N3CCC4(CC3)NC(=O)Nc3ccccc34)ncn2)c2ccccc21` [(1), 1-(6-(1-Methyl-1H-indol-3-carbonyl)pyrimidin-4-yl)-1'H-spiro[piperidin-4,4'-chinazolin]-2'(3'H)-on] returned a Ki of 81 nM. On to `Cn1cc(C(=O)c2cc(Nc3ccc4c(c3)CC3(C4)C(=O)Nc4ncccc43)ncn2)c2ccccc21` (stereo not drawn) [(2), 5-(6-(1-Methyl-1H-indol-3-carbonyl)pyrimidin-4-ylamino)-1,3-dihydrospiro[inden-2,3'-pyrrolo[2,3-b]pyridin]-2'(1'H)-on], for which the affinity, expressed as Ki, was 89 nM.

The compound `Cn1cc(C(=O)c2cc(N3CCC4(CC3)OC(=O)Nc3ccccc34)ncn2)c2ccccc21` [(3), 1'-(6-(1-Methyl-1H-indol-3-carbonyl)pyrimidin-4-yl)spiro[benzo[d][1,3]oxazin-4,4'-piperidin]-2(1H)-on] had a Ki of 204 nM.
